The assay concerns P388 leukemia ip, CD2F1 mice, survival T/C. Nature of the assay: NCI In Vivo Anticancer Drug Screen. Data for tumor model P388 Leukemia (intraperitoneal) in CD2F1 (CDF1) mice. The note with it: endpoint: median survival time, higher = longer survival. A digest of the protocol:
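Mice carrying the transplanted tumor received test compound or vehicle. Survival was recorded in each group, and the value is the treated-group measurement divided by that of the vehicle-treated control group.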

[1] abbreviates: dose: 50.0 mg/kg/injection, schedule: Q01DX005 (ip), vehicle: saline with Tween-80.
The mark [2] stands for this setting: dose: 100.0 mg/kg/injection, schedule: Q01DX005 (ip), vehicle: saline with Tween-80.
Setting [3] is: dose: 200.0 mg/kg/injection, schedule: Q01DX005 (ip), vehicle: saline with Tween-80.
Where [4] appears, read: dose: 50.0 mg/kg/injection, schedule: Q01DX009 (ip), vehicle: saline.
Setting [5] is: dose: 100.0 mg/kg/injection, schedule: Q01DX009 (ip), vehicle: saline.
Where [6] appears, read: dose: 200.0 mg/kg/injection, schedule: Q01DX009 (ip), vehicle: saline.
Where [7] appears, read: dose: 60.0 mg/kg/injection, schedule: Q01DX005 (ip), vehicle: saline with Tween-80.
Where [8] appears, read: dose: 120.0 mg/kg/injection, schedule: Q01DX005 (ip), vehicle: saline with Tween-80.
Setting [9] is: dose: 240.0 mg/kg/injection, schedule: Q01DX005 (ip), vehicle: saline with Tween-80.
Setting [10] is: dose: 50.0 mg/kg/injection, schedule: Q01DX009 (ip), vehicle: Klucel (hydroxypropylcellulose) (HPC).
Setting [11] is: dose: 100.0 mg/kg/injection, schedule: Q04DX003 (ip), vehicle: saline with Tween-80.

“And” between values parts separate entries of the source, which are not always exact repeats. Equal values may be shown once. Toxic doses and inconclusive results are not listed. Square brackets hold non-standard residues; d marks the D form. Peptide text beside a SMILES is read from it. ξ: configuration not given here. ξD = NC(CC(=O)O)C(=O)O

On to `CCC[n+]1noc(N)n1`, for which the T/C reads like this: (dose: 3.13 mg/kg/injection, schedule: Q01DX009 (ip), vehicle: water) 97 % of control; (dose: 6.25 mg/kg/injection, schedule: Q01DX009 (ip), vehicle: water) 99 % of control; (dose: 12.5 mg/kg/injection, schedule: Q01DX009 (ip), vehicle: water) 90 % of control; (dose: 25.0 mg/kg/injection, schedule: Q01DX009 (ip), vehicle: water) 97 % of control; (dose: 50.0 mg/kg/injection, schedule: Q01DX009 (ip), vehicle: water) 106 % of control; (dose: 100.0 mg/kg/injection, schedule: Q01DX009 (ip), vehicle: water) 106 % of control.
In the case of `Cc1cc(=O)c2ccc3c(c2[nH]1)Oc1ccc2c(=O)cc(C)[nH]c2c1O3`, the T/C was 98 % of control under setting [1], 101 % of control under setting [2] and 98 % of control under setting [3].
Take `NC1C([O-])OC(CO)C(O)C1O.O=C1OC(C(O)CO)C([O-])=C1[OH2+].[Cu+2]` (centres undefined): the T/C reads like this: (dose: 6.25 mg/kg/injection, schedule: Q01DX005 (ip), vehicle: saline) 93 % of control; (dose: 12.5 mg/kg/injection, schedule: Q01DX005 (ip), vehicle: saline) 99 % of control.
Consider `C[Si](C)(C)O/C=C1\CCc2ccccc2C1=O`, for which the T/C runs as follows: under setting [1], 100 % of control; under setting [2], 101 % of control; under setting [3], 114 % of control.
Turning to `CC(C)(F)c1nc2cc3ccccc3cc2[nH]c1=O`, the T/C reads like this: (dose: 100.0 mg/kg/injection, schedule: Q01DX001 (ip), vehicle: saline with Tween-80) 98 % of control; (dose: 200.0 mg/kg/injection, schedule: Q01DX001 (ip), vehicle: saline with Tween-80) 90 % of control.
For the compound `C#CCN(CC#C)S(=O)(=O)c1ccc(C)cc1`, the T/C runs as follows: under setting [4], 104 % of control; under setting [5], 108 % of control; under setting [6], 108 % of control.
Take `COc1c(Cl)cccc1N=Cc1ccc(C=Nc2cccc(Cl)c2OC)cc1`: the T/C by setting is: under setting [4], 97 % of control; under setting [5], 90 % of control; under setting [6], 89 % of control.
Take `c1ccc2oc(NCCSSCCNc3nc4ccccc4o3)nc2c1`: the T/C runs as follows: (dose: 12.5 mg/kg/injection, schedule: Q01DX009 (ip), vehicle: other) 100 % of control; (dose: 25.0 mg/kg/injection, schedule: Q01DX009 (ip), vehicle: other) 92 % of control; (dose: 50.0 mg/kg/injection, schedule: Q01DX009 (ip), vehicle: other) 86 % of control and 93 % of control.
As to `O=C(Cc1ccc(CC(=O)NCCCCc2ccccc2)cc1)NCCCCc1ccccc1`, the T/C by setting is: under setting [7], 88 % of control; under setting [8], 88 % of control; under setting [9], 86 % of control.
Take `NC(=O)c1cc([N+](=O)[O-])cnc1Sc1ncccn1`: the T/C by setting is: (dose: 12.5 mg/kg/injection, schedule: Q01DX009 (ip), vehicle: Klucel (hydroxypropylcellulose) (HPC)) 110 % of control; (dose: 25.0 mg/kg/injection, schedule: Q01DX009 (ip), vehicle: Klucel (hydroxypropylcellulose) (HPC)) 118 % of control; under setting [10], 111 % of control and 114 % of control.
Regarding `COc1ccc(C(=O)Cc2cc3c(cc2Br)OCO3)cc1OC`, the T/C runs as follows: (dose: 100.0 mg/kg/injection, schedule: Q01DX001 (ip), vehicle: Klucel (hydroxypropylcellulose) (HPC)) 101 % of control; (dose: 200.0 mg/kg/injection, schedule: Q01DX001 (ip), vehicle: Klucel (hydroxypropylcellulose) (HPC)) 105 % of control; (dose: 400.0 mg/kg/injection, schedule: Q01DX001 (ip), vehicle: Klucel (hydroxypropylcellulose) (HPC)) 99 % of control.
For `NCC(=O)NC(CC(=O)O)C(=O)O` (centres undefined) (H-Gly-[ξD]-OH), the T/C under setting [11] was 100 % of control; the T/C (dose: 200.0 mg/kg/injection, schedule: Q04DX003 (ip), vehicle: saline with Tween-80) was 93 % of control; the T/C (dose: 400.0 mg/kg/injection, schedule: Q04DX003 (ip), vehicle: saline with Tween-80) was 94 % of control.
In the case of `CCC(=O)O[C@H]1CC[C@H]2[C@@H]3C[C@H](F)C4=CC(=O)CC[C@]4(C)[C@H]3CC[C@]12C`, the T/C was 100 % of control (dose: 50.0 mg/kg/injection, schedule: Q01DX009 (ip), vehicle: saline with Tween-80); 100 % of control (dose: 100.0 mg/kg/injection, schedule: Q01DX009 (ip), vehicle: saline with Tween-80); 100 % of control (dose: 200.0 mg/kg/injection, schedule: Q01DX009 (ip), vehicle: saline with Tween-80).
Consider `COC(=O)C(=O)c1c(C(=O)OC)nc2nnc(N)n2c1-c1ccc(F)cc1`, for which the T/C reads like this: (dose: 30.0 mg/kg/injection, schedule: Q01DX005 (ip), vehicle: saline with Tween-80) 93 % of control; under setting [7], 99 % of control; under setting [8], 88 % of control; under setting [9], 93 % of control.
`CC1(C)CCCC2(C)C1CCC13OC1(C=O)C(C=O)=CCC23` (centres undefined): the T/C (dose: 1.25 mg/kg/injection, schedule: Q01DX005 (ip), vehicle: saline + alcohol) was 99 % of control; the T/C (dose: 2.5 mg/kg/injection, schedule: Q01DX005 (ip), vehicle: saline + alcohol) was 98 % of control; the T/C (dose: 5.0 mg/kg/injection, schedule: Q01DX005 (ip), vehicle: saline + alcohol) was 99 % of control; the T/C (dose: 10.0 mg/kg/injection, schedule: Q01DX005 (ip), vehicle: saline + alcohol) was 99 % of control; the T/C (dose: 20.0 mg/kg/injection, schedule: Q01DX005 (ip), vehicle: saline + alcohol) was 104 % of control.
Regarding `Brc1c(C(Br)Br)ccc2ccccc12`, the T/C is 103 % of control (dose: 50.0 mg/kg/injection, schedule: Q01DX005 (ip), vehicle: Klucel (hydroxypropylcellulose) (HPC)); 105 % of control (dose: 100.0 mg/kg/injection, schedule: Q01DX005 (ip), vehicle: Klucel (hydroxypropylcellulose) (HPC)); 109 % of control (dose: 200.0 mg/kg/injection, schedule: Q01DX005 (ip), vehicle: Klucel (hydroxypropylcellulose) (HPC)).
Turning to `O=C1OCC/C1=C/O/C=C1\CCOC1=O`, the T/C runs as follows: under setting [7], 106 % of control; under setting [8], 119 % of control.
Turning to `C=CCCCCCCCCC(=O)N(CCOC)CCOC`, the T/C runs as follows: (dose: 25.0 mg/kg/injection, schedule: Q04DX003 (ip), vehicle: saline with Tween-80) 100 % of control; (dose: 50.0 mg/kg/injection, schedule: Q04DX003 (ip), vehicle: saline with Tween-80) 100 % of control; under setting [11], 100 % of control.
Take `Cc1cc(C)c2c(=O)c3c(oc2c1)O[C@@](C)(CO)C[C@@H]3c1ccccc1`: the T/C under setting [7] was 101 % of control, the T/C under setting [8] was 98 % of control and the T/C under setting [9] was 106 % of control.
Turning to `C[C@]12CCC[C@H](O)[C@H]1O2`, the T/C is, setting by setting: (dose: 100.0 mg/kg/injection, schedule: Q04DX003 (ip), vehicle: saline) 104 % of control; (dose: 200.0 mg/kg/injection, schedule: Q04DX003 (ip), vehicle: saline) 102 % of control; (dose: 400.0 mg/kg/injection, schedule: Q04DX003 (ip), vehicle: saline) 102 % of control.
With `COc1ccc(S(=O)(=O)N2OC2c2ccccc2)cc1` (centres undefined), the T/C was 100 % of control under setting [10] and 100 % of control (dose: 100.0 mg/kg/injection, schedule: Q01DX009 (ip), vehicle: Klucel (hydroxypropylcellulose) (HPC)).
For the compound `Cc1ccc2c(c1)C(=Nc1ccc(Cl)cc1)C(=O)N2`, the T/C by setting is: (dose: 0.93 mg/kg/injection, schedule: Q01DX005 (ip), vehicle: saline with Tween-80) 101 % of control; (dose: 1.87 mg/kg/injection, schedule: Q01DX005 (ip), vehicle: saline with Tween-80) 93 % of control; (dose: 3.75 mg/kg/injection, schedule: Q01DX005 (ip), vehicle: saline with Tween-80) 87 % of control; (dose: 15.0 mg/kg/injection, schedule: Q01DX005 (ip), vehicle: saline with Tween-80) 87 % of control; under setting [7], 99 % of control; under setting [8], 87 % of control. Moreover, the T/C under setting [9] is 95 % of control.
As for `CCCOC1CC(C)(O)Cc2cc3c(c(O)c21)C(=O)c1c(O)cc2c(c1C3=O)OC1OC2(C)C(O)C(N(C)C)C1O` (centres undefined), the T/C is, setting by setting: (dose: 1.56 mg/kg/injection, schedule: Q01DX009 (ip), vehicle: other) 124 % of control; (dose: 3.13 mg/kg/injection, schedule: Q01DX009 (ip), vehicle: other) 150 % of control.

The values are drawn from PubChem BioAssay AID330 (DTP/NCI, 2004).
